We go through nine molecules from PubChem BioAssay (NCI).

Where “and” joins values, the source holds several entries; their conditions need not be identical. Equal entries are not always repeated.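 48-hour exposure; five concentrations; linearly interpolated endpoints. TGI marks complete inhibition of growth.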

Holding throughout (assay): NCI anticancer screen, dose series, 48 h
The subject of assay [1] is CAKI-1 renal.
The test system of assay [2] is NCI-H522 lung.
In assay [3] the test system is IGROV1 ovarian.
Assay [4] has as its system OVCAR-8 ovarian.
The subject of assay [5] is OVCAR-3 ovarian.
For assay [6], the system named is SF-295 CNS.
The subject of assay [7] is A549 NSCLC.
The test system of assay [8] is SN12C renal.
Assay [9] concerns HL-60(TB) leukemia.
Assay [10] concerns SR leukemia.
The subject of assay [11] is MDA-MB-231 breast.
In assay [12] the test system is RPMI-8226 leukemia.
Assay [13] deals with NCI-H23 lung.
Assay [14] concerns UACC-257 melanoma.
Assay [15] deals with 786-0 renal.
The test system of assay [16] is U251 CNS.
Assay [17] has as its system MOLT-4 leukemia.

On to `CC(Oc1ccc(Oc2cnc3ccc(Cl)cc3n2)cc1)C(=O)O` (stereo not given), for which the TGI is above 100 µM in assay [1]; 99.4 µM and > 100 µM in [2]; above 100 µM in assay [3]; above 100 µM in assay [4]; above 100 µM in [5]; above 100 µM in assay [6]. Besides, the TGI in [7], in [8], in [9], in assay [10], in assay [11] and in [12] was above 100 µM throughout. Also, the TGI in [13], in assay [14], in assay [15], in assay [16] and in assay [17] was above 100 µM in each case.
On to `Nc1ccccc1C#CC(=O)c1cccc(C(F)(F)F)c1`, for which the TGI came to 13.5 µM in assay [1]; 2.36 µM in [2]; 1.99 µM in [3]; 14.7 µM in assay [5]; 34.1 µM in assay [6]; 33.6 µM in assay [7]. Besides, the TGI in assay [8] was 4.81 µM; in [9], 41.1 µM; in assay [10] it was above 100 µM; in [11] it was 4.97 µM; in assay [12], 5.4 µM; in assay [13] it was 4.71 µM. Also, the TGI in assay [14] was 29.5 µM; in assay [15] it was 4.68 µM; in assay [16] it was 3.95 µM.
As for `CC(=O)C(C)C(=O)N1C(=O)N(C)C2(C)N(C)C(=O)NC12C` (stereo not given), the TGI in assay [1], in [2], in assay [3], in assay [5], in [6] and in assay [7] was above 100 µM each time. Moreover, the TGI in assay [8], in assay [9], in assay [10], in [11], in [12] and in assay [13] was above 100 µM each time. In addition, the TGI in [15] and in assay [16] was above 100 µM each time.
Turning to `CC1CN=C(Nc2cccc(F)c2)S1` (stereo not given), the TGI in assay [1], in [2], in assay [3], in assay [4], in [5] and in assay [6] was above 100 µM each time. Further, the TGI is above 100 µM in assay [7]; above 100 µM in assay [8]; above 100 µM in assay [9]; above 100 µM in assay [10]; 25.2 µM in [11]; above 100 µM in [12]. In addition, the TGI in assay [13], in assay [14], in assay [15] and in [16] was above 100 µM throughout.
As to `Cn1c(=Nc2ccc(Cl)cc2)sc2ccccc21`, the TGI in [1] was above 100 µM; in [2] it was 35 µM; in assay [3] it was above 100 µM; in assay [4] it was above 100 µM; in assay [6], above 100 µM; in assay [7] it was above 100 µM. Besides, the TGI in assay [8], in assay [9], in assay [10], in assay [11], in assay [12] and in assay [13] was above 100 µM each time. Moreover, the TGI in assay [14], in assay [15], in assay [16] and in assay [17] was above 100 µM throughout.
Consider `CC1(C)CC(=O)c2c(nc3c(ccc4ccccc43)c2-c2ccc(NC(=O)CCC(=O)Nc3ccc(-c4c5c(nc6c4ccc4ccccc46)CC(C)(C)CC5=O)cc3)cc2)C1`, for which the TGI in [1], in [2], in assay [3], in assay [4], in [5] and in assay [6] was above 100 µM throughout. The TGI in assay [7], in assay [8], in [9], in assay [10], in assay [11] and in assay [12] was above 100 µM each time. For the same molecule, the TGI in assay [14], in [15], in [16] and in [17] was above 100 µM each time.
Consider `O=C(c1ccccc1)N1C(=O)N(c2ccccc2)C(=Nc2ccccc2)C1=Nc1ccccc1`, for which the TGI in assay [1], in [2], in assay [3], in assay [4], in assay [6] and in assay [7] was above 100 µM each time. Besides, the TGI in assay [8], in assay [9], in [10], in assay [11], in assay [12] and in assay [13] was above 100 µM in each case. Besides, the TGI in assay [14], in assay [15], in assay [16] and in assay [17] was above 100 µM throughout.
With `COc1ccc(-c2oc3cc(OC)c(OC)c(O)c3c(=O)c2OC)cc1`, the TGI was above 100 µM in assay [1]; above 100 µM in assay [2]; 56.8 µM in assay [3]; above 100 µM in assay [4]; 46.9 µM in assay [6]; above 100 µM in [7]. The TGI in assay [8] is above 100 µM; in [9], above 100 µM; in assay [10] it was above 100 µM; in assay [11], 50 µM; in [12] it was above 100 µM; in [14], above 100 µM. For the same molecule, the TGI was 68.2 µM in assay [15], above 100 µM in assay [16] and above 100 µM in assay [17].
For `COc1ccc2cc(CNCCCCCCCCNCc3ccc4cc(OC)ccc4c3)ccc2c1`, the TGI in assay [1] was above 100 µM; in assay [2] it was 69.4 µM; in assay [3], above 100 µM; in [5], 9.86 µM; in [6], 41.2 µM; in assay [7], above 100 µM. The TGI in assay [9] was 15.2 µM; in [10], 2.76 µM; in assay [11], above 100 µM; in assay [12], 12.2 µM; in [13], above 100 µM; in assay [14], 10.1 µM. For the same molecule, the TGI in assay [15] was above 100 µM; in [16], 6.66 µM; in [17] it was 7.5 µM.
